Literature values as cited in patent US12290493B2 (Advanced Respiratory Technologies, Inc., priority 2017, dated 2025).

Legend:
[1] = fraction of the l-epinephrine effect
[2] = test system: beta adrenergic receptors

SMILES	pressor effect relative to that of l-epinephrine [1]	beta adrenergic activity [2]
CNC[C@H](O)c1ccc(O)c(O)c1 [d-epinephrine]	about one-fifteenth	–
CNCC(=O)c1ccc(O)c(O)c1 [adrenalone]	–	little if any beta adrenergic activity
